Earlier results, collected in patent US10155994B2, “Methods of detecting DDR2 mutations” (QUEST DIAGNOSTICS INVESTMENTS INCORPORATED, priority 2012, dated 2018).

Details: current daily oral dosing; from Bradeen et al. Blood 2006

achievable plasma trough concentration [nM] | SMILES
100 | Cc1nc(Nc2ncc(C(=O)Nc3c(C)cccc3Cl)s2)cc(N2CCN(CCO)CC2)n1 [dasatinib]
2000 | Cc1cn(-c2cc(NC(=O)c3ccc(C)c(Nc4nccc(-c5cccnc5)n4)c3)cc(C(F)(F)F)c2)cn1 [nilotinib]
